Test system: 282377-053-R-J1-PDC complex spheroid viability
Assay: Anticancer human tumor 282377-053-R-J1-PDC patient-derived colon adenocarcinoma cell line growth inhibition [POLQ]
Details: for IC50: curve of first compound; for viability, T/C: stronger effect = lower value; active = viability on the fitted dose curve at most 10% of control; inactive = the rest
Method: Multicellular complex tumor spheroid response to Polymerase (POL) inhibitors (novobiocin, ART-558, RP6685) in combination with a variety of drugs and investigational agents in selected tumor cell lines
The POL inhibitors (novobiocin, ART-558, and RP6685) were evaluated both individually and in combination with standard of care and investigational anticancer small molecules within a complex spheroid model of solid tumors. . Complex spheroids include a stromal component modeled by human endothelial cells (HUVEC) and fibroblasts modeled by human mesenchymal stem cells (MSCs). The concentration ranges selected for each drug and investigational agent were based upon clinically achievable concentrations if the clinical Cmax of the agent was known.
Compounds. The drugs and investigational agents: novobiocin (NSC847541), ART-558 (NSC835418), RP-6685 (NSC848927), peposertib (NSC802822), ceralasertib (NSC780249), elimusertib (NSC800525), camonsertib (NSC841442), AZD-1390 (NSC803789), olaparib (NSC753686), talazoparib (NSC767125), rucaparib (NSC756644), sotorasib (NSC818433), MRTX-1133 (NSC836407), SN-38 (NSC673596), topotecan (NSC609699), epotoside (NSC141540), doxorubicin (NSC123127), gemcitabine (NSC613327), 5-fluorouracil (NSC19893), paclitaxel (NSC125973), vemurafenib (NSC761431), MSA-2 (NSC828583), SN-011 (NSC837082), adavosertib (NSC754352), prexasertib (NSC758257), carboplatin (NSC241240) and oxaliplatin (NSC266046), were obtained from the National Cancer Institute (NCI) Developmental Therapeutics Program Chemical Repository (21). The FDA-approved anticancer drug set is available from the Developmental Therapeutics Program at https://dtp.cancer.gov/organization/dscb/obtaining/. […] The stock solutions were prepared in dimethyl sulfoxide (DMSO, Sigma-Aldrich, St. Louis, MO, cat. D2650), except for the platinum compounds which were prepared in saline (Quality Biological, Gaithersburg, MD, cat. 114-055-101), at 800-fold the tested concentration and stored at -70 degrees C prior to their use. All drugs and investigational agents were tested over a range starting from a high concentration at or near the clinical Cmax and decreasing in half-log increments. If the clinical Cmax for an agent had not been determined, the highest concentration tested was 10 microM, except for SN-38, which was tested at a high concentration of 1 microM.
Cell Culture. All cells were maintained in an incubator at 37 degrees C and 5% CO2 with 95% humidity. The PDC lines were cultured according to standard operating procedures established by the NCI PDMR (https://pdmr.cancer.gov). Table 3 of the manuscript, lists the cell lines along with the number of the three cell types plated to form the mct-spheroids and media for tumor cell growth. After thawing, all PDC lines, except 997537-175-T-J1-PDC and 415267-285-R-J2-PDC, were cultured in Matrigel-coated flasks prepared with a working solution of 1X Ham's F-12 nutrient mix, without supplementation (Thermo Fisher Scientific, cat. 11765054), 100 U/mL penicillin-streptomycin (Thermo Fisher Scientific, cat. 15140122), and 2.5% Matrigel (Corning Inc., Corning, NY, cat. 354248) for the first three passages. The two PDC lines 997537-175-T-J1-PDC and 415267-285-R-J2-PDC were cultured on uncoated flasks. The 857933-349-R-J2-PDC line was cultured in 6C/Colon 1B media containing advanced DMEM/F-12 (Thermo Fisher Scientific, cat. 12634028), 10 mM HEPES (Thermo Fisher Scientific, cat. 15630080), 1X GlutaMAX supplement (Thermo Fisher Scientific, cat. 35050061), 0.1 mg/mL primocin (InvivoGen, San Diego, CA, cat. ant-pm-2), 10% defined fetal bovine serum, heat inactivated (HyClone Laboratories Inc., Logan, UT, cat. SH30070.03HI), 50% L-WRN conditioned media (ATCC, cat. CRL-3276), 1.25 mM N-Acetyl-L-cysteine (Sigma-Aldrich, cat. A9165), 10 mM nicotinamide (Sigma-Aldrich, cat. N0636), 1X B-27 supplement (Thermo Fisher Scientific, cat. 17504044), 1X N-2 supplement (Thermo Fisher Scientific, cat. […]
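Note: spheroids exposed to compounds for seven days.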

CCc1cc2c(N3CCc4c(cc(Cn5ccnc5)cc4-c4cn(C)nc4C(F)(F)F)C3=O)cc(C)nc2c(OC)n1 + Cc1cccc(N(C)C(=O)C2C(O)CCN2c2nc(C)cc(C(F)(F)F)c2C#N)c1
> 10 µM: IC50 (second compound 0.0316 µM) | IC50 (second compound 0.1 µM) | IC50 (second compound 0.316 µM) | IC50 (second compound 1 µM) | IC50 (second compound 3.16 µM) | IC50 (second compound 10 µM)
inactive: viability, T/C (second compound 0.0316 µM, first compound 0.0316 µM) 104% | viability, T/C (second compound 0.0316 µM, first compound 0.1 µM) 99.8% | viability, T/C (second compound 0.0316 µM, first compound 0.316 µM) 89.7% | viability, T/C (second compound 0.0316 µM, first compound 1 µM) 103% | viability, T/C (second compound 0.0316 µM, first compound 3.16 µM) 108% | viability, T/C (second compound 0.0316 µM, first compound 10 µM) 134% | viability, T/C (second compound 0.1 µM, first compound 0.0316 µM) 85.9% | viability, T/C (second compound 0.1 µM, first compound 0.1 µM) 102% | viability, T/C (second compound 0.1 µM, first compound 0.316 µM) 91.2% | viability, T/C (second compound 0.1 µM, first compound 1 µM) 91.2% | viability, T/C (second compound 0.1 µM, first compound 3.16 µM) 112% | viability, T/C (second compound 0.1 µM, first compound 10 µM) 117% | viability, T/C (second compound 0.316 µM, first compound 0.0316 µM) 90.3% | viability, T/C (second compound 0.316 µM, first compound 0.1 µM) 99.8% | viability, T/C (second compound 0.316 µM, first compound 0.316 µM) 111% | viability, T/C (second compound 0.316 µM, first compound 1 µM) 110% | viability, T/C (second compound 0.316 µM, first compound 3.16 µM) 104% | viability, T/C (second compound 0.316 µM, first compound 10 µM) 108% | viability, T/C (second compound 1 µM, first compound 0.0316 µM) 111% | viability, T/C (second compound 1 µM, first compound 0.1 µM) 102% | viability, T/C (second compound 1 µM, first compound 0.316 µM) 114% | viability, T/C (second compound 1 µM, first compound 1 µM) 89.9% | viability, T/C (second compound 1 µM, first compound 3.16 µM) 108% | viability, T/C (second compound 1 µM, first compound 10 µM) 107% | viability, T/C (second compound 3.16 µM, first compound 0.0316 µM) 110% | viability, T/C (second compound 3.16 µM, first compound 0.1 µM) 99.5% | viability, T/C (second compound 3.16 µM, first compound 0.316 µM) 101% | viability, T/C (second compound 3.16 µM, first compound 1 µM) 93.8% | viability, T/C (second compound 3.16 µM, first compound 3.16 µM) 122% | viability, T/C (second compound 3.16 µM, first compound 10 µM) 115% | viability, T/C (second compound 10 µM, first compound 0.0316 µM) 96.8% | viability, T/C (second compound 10 µM, first compound 0.1 µM) 98.3% | viability, T/C (second compound 10 µM, first compound 0.316 µM) 97% | viability, T/C (second compound 10 µM, first compound 1 µM) 96.8% | viability, T/C (second compound 10 µM, first compound 3.16 µM) 104% | viability, T/C (second compound 10 µM, first compound 10 µM) 126%

Reference: PubChem BioAssay AID1963852 (Molecular Pharmacology Branch, DTP, NCI, 2024)
